The values that follow come from patent US20050020544A1, “Bicyclic CB2 cannabinoid receptor ligands” (priority 2002, published 2005).

The target in one experiment is T1, human CB1 receptor (Homo sapiens, UniProt P21554).
T1 construct: purchased Perkin Elmer/NEN; host or cells: HEK-293 cells, stably transfected (membranes)
In words: biochemical. The settings on record: displacement of [3H]CP55940, hCB1 HEK-293 membranes; read-out: CB1 IC50. The experiment is classed as binding. On the procedure:
(§1) In the present invention, binding affinity is represented by the IC50 value, namely the concentration of a test compound that will displace 50% of a radiolabeled agonist from the CB receptors. […] Preferably these ratios will be obtained for human CB1 and CB2 receptors. The selectivity toward CB2, denoted CB2/CB1 affinity, is calculated as the IC50 value obtained by the test compound for the displacement of the CB1 specific radioligand divided by the IC50 value obtained for the displacement of the CB2 specific radioligand, i.e. the IC50 CB1/IC50 CB2.
The CB1 binding assays were performed by testing the ability of the new compounds to displace [^3H]CP55940 from the CB1 receptor on membranes derived from hCB1 stably transfected HEK-293 cells (Perkin Elmer/NEN). Membranes were diluted in the assay buffer (50 mM Tris-HCl, 2.5 mM EDTA, 5 mM MgCl2, 1 mg/ml BSA, pH=7.4) to 500 μg protein/ml. 50 μl of diluted membranes (25 μg) were incubated with [^3H]CP55940 in the presence or absence of the bicyclic test compounds in a total volume of 0.5 ml. Tested compounds were dissolved in DMSO and diluted in the assay buffer to a final concentration of 0.1% solvent. Control samples were added with identical amount of vehicle. Non-specific binding was measured by the addition of 10 μM of WIN 55212-2. Following 1.5 hours incubation at 30° C. reactions were filtered through Whatman 934A/H filters (presoaked with 0.1% Polyethylenimine (PEI)).
(§2) Binding to CB1 is measured by competitive inhibition of [^3H]CP55940 in HEK-293 cells stably transfected with the human CB1 receptor gene. Binding to CB2 is measured by competitive inhibition of [^3H]WIN55212-2 in CHO cells stably transfected with the human CB2 receptor gene.
(In a radioligand displacement assay an active substance lowers the binding of a labelled ligand.)

The target of the next experiment is human CB2 receptor (Homo sapiens, UniProt P34972). In words: biochemical. The settings on record: for CB2/CB1 affinity ratio: IC50 CB1/IC50 CB2; for IC50: displacement of [3H]WIN 55212-2, hCB2 CHO membranes. The experiment is classed as binding. Set-up: purchased Perkin Elmer/NEN; host or cells: CHO cells, stably transfected (membranes). On the procedure: as §1
Chain of human CB2 receptor (P34972 whole entry): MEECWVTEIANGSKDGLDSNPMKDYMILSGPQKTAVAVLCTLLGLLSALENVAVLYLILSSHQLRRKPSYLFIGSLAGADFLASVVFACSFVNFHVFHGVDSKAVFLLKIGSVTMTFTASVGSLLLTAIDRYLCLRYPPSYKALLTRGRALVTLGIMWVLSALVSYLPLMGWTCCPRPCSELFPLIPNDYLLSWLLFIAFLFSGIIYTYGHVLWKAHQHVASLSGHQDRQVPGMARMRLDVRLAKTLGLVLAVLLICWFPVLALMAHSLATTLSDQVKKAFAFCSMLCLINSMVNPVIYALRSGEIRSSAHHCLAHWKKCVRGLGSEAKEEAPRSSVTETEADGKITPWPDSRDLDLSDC
The affinities of the novel bicyclic analogs to the CB2 receptor were determined by their ability to displace [^3H]WIN 55212-2 from the receptor in membranes derived from hCB2 stably transfected CHO cells (Perkin Elmer/NEN). Membranes were diluted in assay buffer (10 mM HEPES, 1 mM MgCl2, 1 mM EDTA, 0.3 mg/ml BSA, pH=7.4) to 500 μg protein/ml. 50 μl of diluted membranes (25 μg) were incubated with 0.8 nM of [^3H]WIN 55212-2 in the presence or absence of several concentrations of the bicyclic test compounds in a total volume of 1 ml. Tested compounds were dissolved and diluted as previously described for the hCB1 assay. Non-specific binding was measured by the addition of 10 μM CP 55940. Following 40 minutes incubation at 30° C. reactions were filtered as previously described. Filters for all binding assays were counted in a β-counter and log of analog concentration versus % of binding was plotted. IC50 values were extrapolated from this plot.
as §2

In the next experiment the test system is Male Sprague Dawley rats. In words: Inflammatory pain: carrageenan paw edema in rats, thermal and mechanical stimuli. The experiment is classed as in vivo, rat. The settings on record: for analgesic activity of the antagonists by themselves: 5 mg/kg i.p.; for ΔForce (tactile stimulus) / ΔLT (thermal stimulus): 10 mg/kg i.p., three hours. The method, then:
Male Sprague Dawley rats (200 g average body weight, Harlan, Israel) are transiently sedated by placement on dry ice for the duration of the injections. […] Before induction of inflammatory pain and three hours after injection, the animals reactions to pain stimuli were tested in two systems. The first stimulus was thermal and assessed by the Plantar Test according to Hargreaves, using Ugo Basile Model 7370. The scale was set to an intensity of 50 arbitrary units. The latency time till the animal lift a paw as a reaction to the thermal stimulus was recorded for both the inflamed and non-inflamed hind paws. The second stimulus was mechanical (tactile) and assessed using a Dynamic Plantar Sesthesiomether (Ugo Basile Model 73400-002).
The results are measured as the differences between the two hind paws at time 0 and 3 hours both as ALT, for the latency time in the thermal part of the study, and as ΔForce, for the mechanical part of the study.

The test system of another experiment is ICR male mice. In words: Tail flick model for acute peripheral pain, i.p. The experiment is classed as in vivo, mouse. The settings on record: 4 mg/kg i.p., thirty minutes. The method, then:
ICR male mice (20-30 g average body weight, Harlan, Israel) were injected i.p. at the volume dose of 5 ml/kg. Each treatment group contained at least 6 animals. Morphine HCl was used as positive control at the final dose of 5 mg/kg. Its vehicle, saline, was also included as control. The test compounds were dissolved in CREMOPHOR EL®:ethanol and diluted 1:20 in saline prior to injection, this second type of vehicle was also included as negative control. The final dose injected varied from 0.1 to 10 mg/kg. At predetermined time points after treatment injection, the animals were placed in the tail flick system (Socrel, model DS 20). Animals were gently held while their tails were located above the photoelectric cell. The tails were then illuminated (21V) at 2 cm from the distal tip and the latency time, measured in seconds, was recorded in duplicates. At the end of the study, the animals were euthanized by i.p. injection of 100 mg/kg sodium pentobarbitone.
Two parameters were used to analyze the results, the latency time and the % of animals showing analgesia. […] The results in both cases are expressed as mean±SE. The differences between the latency times or the % of animals showing analgesia among various treatment groups was analyzed by analysis of variance (ANOVA) followed by post-hoc Tukey's test (for latency) or Fisher's exact test (for % animals). A value of p<0.05 is considered to be statistically significant.

T1 sequence (P21554 whole entry): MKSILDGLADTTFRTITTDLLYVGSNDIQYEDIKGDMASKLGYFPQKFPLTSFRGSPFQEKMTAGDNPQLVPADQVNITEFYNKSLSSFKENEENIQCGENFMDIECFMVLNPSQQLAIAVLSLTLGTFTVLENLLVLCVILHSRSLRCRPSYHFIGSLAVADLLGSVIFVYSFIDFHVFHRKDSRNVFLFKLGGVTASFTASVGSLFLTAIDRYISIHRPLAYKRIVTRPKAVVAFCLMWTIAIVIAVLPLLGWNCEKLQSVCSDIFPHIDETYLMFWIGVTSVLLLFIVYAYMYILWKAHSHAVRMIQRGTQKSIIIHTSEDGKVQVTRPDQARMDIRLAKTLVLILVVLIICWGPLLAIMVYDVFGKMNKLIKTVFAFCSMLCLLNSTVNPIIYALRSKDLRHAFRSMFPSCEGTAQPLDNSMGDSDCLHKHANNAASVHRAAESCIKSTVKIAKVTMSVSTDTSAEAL

The IC50 is the midpoint of a concentration-inhibition curve. On to `C#CCCCCC(C)(C)c1cc(O)c(C2C=C(C)C3CC2C3(C)C)c(O)c1` (single isomer, unassigned; (+)) [Compound E, (+)-5-(1,1-Dimethyl-hept-6-ynyl)-2-(4,6,6-trimethyl-bicyclo[3.1.1]hept-3-en-2-yl)-benzene-1,3-diol], for which the half-maximal inhibitory concentration (IC50) on human CB1 receptor amounted to 26 nM. Also, on human CB2 receptor, the CB2/CB1 affinity ratio stood at 33 and the IC50 was found to be 0.783 nM.

As to `CCCCC(C)(C)c1cc(O)c(C2C=C(COC(=O)C(C)(C)C)[C@H]3C[C@@H]2C3(C)C)c(O)c1` (some centres unmarked) [Compound AH, 2,2-dimethylpropionic Acid-4-{4-[1,1-Dimethyl-pentyl]-2,6-dihydroxy-phenyl}-6,6-dimethyl-bicyclo[3.1.1]hept-2-en-2-yl Methyl Ester], the IC50 on human CB1 receptor is 398 nM; at human CB2 receptor, 42 nM. Moreover, the CB2/CB1 affinity ratio on human CB2 receptor is given as 9.5.

For the molecule SR144528 [reference compound], in the experiment on Male Sprague Dawley rats, the “analgesic activity of the antagonists by themselves” value was “no analgesic activity”.

Turning to `Cc1c(C(=O)NN2CCCCC2)nn(-c2ccc(Cl)cc2Cl)c1-c1ccc(Cl)cc1` [SR141716A, reference compound], the “analgesic activity of the antagonists by themselves” value in the experiment with Male Sprague Dawley rats was “no analgesic activity”.

As to `CC1=CC(c2c(O)cc(-c3ccc(C(C)(C)C)cc3)cc2O)C2CC1C2(C)C` (centres unmarked) [Compound Q, 5-(1,1-Dimethyl-ethyl-phenyl)-2-(4,6,6-trimethyl-bicyclo[3.1.1]hept-3-en-2-yl)-benzene-1,3-diol], on human CB1 receptor, the IC50 was 640 nM. Besides, at human CB2 receptor, the CB2/CB1 affinity ratio came to 53 and the IC50 is 12 nM.

On to `CC(C)(CCc1ccccc1)c1cc(O)c(C2CC(=O)C3CC2C3(C)C)c(O)c1` (centres unmarked) [Compound G, 4-[4-(1,1-Dimethyl-3-phenyl-propyl)-2,6-dihydroxy-phenyl]-6,6-dimethyl-bicyclo[3.1.1]heptan-2-one], for which, on human CB1 receptor, the IC50 came to 563 nM. Moreover, at human CB2 receptor, the CB2/CB1 affinity ratio is recorded as 85 and the IC50 worked out at 6.6 nM.

Regarding `O=C(O)Cc1ccccc1Nc1c(Cl)cccc1Cl` [Diclofenac, reference compound], in the experiment with Male Sprague Dawley rats, the “ΔForce (tactile stimulus)” value came out at 2 g and the “ΔLT (thermal stimulus)” value came to 0 s.

Take `C#CCCCCC(C)(C)c1cc(O)c([C@H]2CC(=O)[C@H]3C[C@@H]2C3(C)C)c(O)c1` [Compound F]: at human CB1 receptor, the IC50 was determined as 13 nM. On human CB2 receptor, the CB2/CB1 affinity ratio stood at 38 and the IC50 came out at 0.344 nM.

Regarding `CCCCCCC(C)(C)c1cc(O)c([C@@H]2CC(=O)C3CC2C3(C)C)c(O)c1` (single isomer, unassigned; (+)) [(+) enantiomer of compound A, reference compound], the latency time in the experiment on ICR male mice stood at 2.4 s. In addition, the CB2/CB1 affinity ratio at human CB2 receptor is reported as 10.

As for `CC(C)(c1ccc(Cl)cc1)c1cc(O)c(C2CC(=O)C3CC2C3(C)C)c(O)c1` (single isomer, unassigned; (-)) [Compound J, (−)-4-{4-[1-(4-Chloro-phenyl)-1-methyl-ethyl]-2,6-dihydroxy-phenyl]-6,6-dimethyl-bicyclo[3.1.1]heptan-2-one], on human CB1 receptor, the IC50 was found to be 659 nM. At human CB2 receptor, the CB2/CB1 affinity ratio amounted to 60 and the IC50 is 11 nM.

On to `CCC(C)(CC)c1cc(O)c(C2CC(=O)C3CC2C3(C)C)c(O)c1` (single isomer, unassigned; (-)) [Compound M, (−)-4-[4-(1-Ethyl-1-methyl-propyl)-2,6-dihydroxy-phenyl]-6,6-dimethyl-bicyclo[3.1.1]heptan-2-one], for which the IC50 at human CB1 receptor is 3900 nM. For the same molecule, on human CB2 receptor, the CB2/CB1 affinity ratio came out at 96 and the IC50 turned out to be 40.8 nM.

For `CC(C(=O)O)c1cccc(C(=O)c2ccccc2)c1` (centres unmarked) [Ketoprofen, reference compound], in the experiment on Male Sprague Dawley rats, the “ΔForce (tactile stimulus)” value came to 7 g and the “ΔLT (thermal stimulus)” value is 0 s.
